Experimental findings from patent publication US20210070748A1, “INHIBITORS OF BRUTONS TYROSINE KINASE” (Pharmacyclics LLC, priority 2015, published 2021) are described below.

Common to all, as to format: biochemical
For experiment [1], the target named is T1, TEC (Homo sapiens, UniProt P42680).
T1 sequence (P42680 1-631): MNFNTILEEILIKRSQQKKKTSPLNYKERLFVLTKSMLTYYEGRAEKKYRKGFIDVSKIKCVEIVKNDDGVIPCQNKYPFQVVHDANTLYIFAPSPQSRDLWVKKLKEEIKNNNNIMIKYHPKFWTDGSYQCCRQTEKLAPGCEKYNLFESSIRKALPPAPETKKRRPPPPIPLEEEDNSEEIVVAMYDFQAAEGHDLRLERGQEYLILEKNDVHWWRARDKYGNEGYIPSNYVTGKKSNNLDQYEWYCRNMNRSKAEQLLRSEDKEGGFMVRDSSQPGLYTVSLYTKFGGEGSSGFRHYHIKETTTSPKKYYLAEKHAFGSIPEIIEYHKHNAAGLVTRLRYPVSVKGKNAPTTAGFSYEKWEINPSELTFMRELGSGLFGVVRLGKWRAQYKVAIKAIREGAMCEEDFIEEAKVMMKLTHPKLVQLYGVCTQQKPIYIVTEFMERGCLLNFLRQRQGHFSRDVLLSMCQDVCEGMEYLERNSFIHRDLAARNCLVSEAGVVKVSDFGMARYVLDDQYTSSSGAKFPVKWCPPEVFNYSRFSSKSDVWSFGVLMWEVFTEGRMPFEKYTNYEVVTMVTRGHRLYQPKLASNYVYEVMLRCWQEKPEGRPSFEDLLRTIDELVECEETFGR
In words: Inhibition of a panel of kinases, in vitro HotSpot kinase assay: TEC. Particulars: D-compounds panel data; 1 μM ATP. The protocol: (§1) The degree of inhibition of a panel of kinases is determined using the in vitro HotSpot kinase assay (purified enzymes, ^33P-ATP, an appropriate substrate and 1 μM ATP).

The target in experiment [2] is T2, ITK (Homo sapiens, UniProt Q08881).
T2 sequence (Q08881 1-620): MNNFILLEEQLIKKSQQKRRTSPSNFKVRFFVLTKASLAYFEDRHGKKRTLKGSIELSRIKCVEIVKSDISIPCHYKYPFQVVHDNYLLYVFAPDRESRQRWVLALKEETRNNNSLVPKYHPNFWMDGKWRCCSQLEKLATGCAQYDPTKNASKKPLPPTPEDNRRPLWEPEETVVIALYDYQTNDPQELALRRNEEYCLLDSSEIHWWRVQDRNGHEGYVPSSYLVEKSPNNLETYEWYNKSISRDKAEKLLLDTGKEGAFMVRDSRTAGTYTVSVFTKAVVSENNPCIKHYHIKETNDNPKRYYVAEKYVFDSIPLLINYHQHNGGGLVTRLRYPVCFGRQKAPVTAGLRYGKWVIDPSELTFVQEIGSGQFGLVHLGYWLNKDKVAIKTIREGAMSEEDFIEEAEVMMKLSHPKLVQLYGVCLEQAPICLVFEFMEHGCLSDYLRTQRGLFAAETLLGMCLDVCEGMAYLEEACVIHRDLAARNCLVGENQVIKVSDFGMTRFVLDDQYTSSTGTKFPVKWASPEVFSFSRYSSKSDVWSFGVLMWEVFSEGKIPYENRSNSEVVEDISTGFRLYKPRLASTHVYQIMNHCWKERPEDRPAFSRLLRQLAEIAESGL
The experiment can be described thus: Inhibition of a panel of kinases, in vitro HotSpot kinase assay: ITK. Particulars: D-compounds panel data; 1 μM ATP. The protocol:
as §1

For experiment [3], the target named is LCK (Homo sapiens, UniProt P06239). The experiment can be described thus: Inhibition of a panel of kinases, in vitro HotSpot kinase assay: LCK. Particulars: D-compounds panel data; 1 μM ATP; read-out: IC50 LCK.
LCK, sequence (P06239 whole entry): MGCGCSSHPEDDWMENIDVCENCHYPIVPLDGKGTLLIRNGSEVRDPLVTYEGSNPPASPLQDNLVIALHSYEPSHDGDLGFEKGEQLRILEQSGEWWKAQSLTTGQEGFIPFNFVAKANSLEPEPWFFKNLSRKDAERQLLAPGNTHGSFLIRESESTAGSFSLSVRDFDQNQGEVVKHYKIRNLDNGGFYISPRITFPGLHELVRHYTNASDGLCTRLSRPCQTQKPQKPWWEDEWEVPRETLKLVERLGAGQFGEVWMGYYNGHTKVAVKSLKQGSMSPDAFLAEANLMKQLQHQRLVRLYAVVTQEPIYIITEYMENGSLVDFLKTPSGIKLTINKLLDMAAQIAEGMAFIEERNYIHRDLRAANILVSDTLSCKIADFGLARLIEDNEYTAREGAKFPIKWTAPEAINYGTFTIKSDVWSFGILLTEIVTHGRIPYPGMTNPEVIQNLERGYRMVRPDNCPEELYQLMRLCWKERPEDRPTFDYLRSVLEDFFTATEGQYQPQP

By IC50 is commonly meant the concentration that gives 50% inhibition. Consider `CN1CCN(c2ccc(Nc3nc(N4CCC[C@@H](n5ccc6cc(C7CC7)ccc6c5=O)C4)cnc3C(N)=O)cc2)CC1` [Example D-165, 5-[(3R)-3-(6-cyclopropyl-1-oxo-1,2-dihydroisoquinolin-2-yl)piperidin-1-yl]-3-{[4-(4-methylpiperazin-1-yl)phenyl]amino}pyrazine-2-carboxamide], for which the IC50 in experiment [1] fell in the range of 10 to 100 nM; in experiment [2], 100 to 1000 nM; in experiment [3], 100 to 1000 nM.
For the compound `Cc1ccc(-c2cnc([C@@H]3CCCN(c4cnc(C(N)=O)c(Nc5cc(C)ns5)n4)[C@@H]3C)[nH]2)cc1` [Example D-131, 3-[(3-methyl-1,2-thiazol-5-yl)amino]-5-[(2R,3R)-2-methyl-3-[5-(4-methylphenyl)-1H-imidazol-2-yl]piperidin-1-yl]pyrazine-2-carboxamide], the IC50 in experiment [1] lay within 100 to 1000 nM; in experiment [2], 1000 to 10000 nM; in experiment [3] it was 100 to 1000 nM.
On to `C[C@H]1CC[C@H](NC(=O)c2ccc(C3CC3)cc2)CN1c1cnc(C(N)=O)c(Nc2cnn(C)c2)n1` [Example D-144, 5-[(2S,5S)-5-(4-cyclopropylbenzamido)-2-methylpiperidin-1-yl]-3-[(1-methyl-1H-pyrazol-4-yl)amino]pyrazine-2-carboxamide], for which the IC50 in experiment [1] is 1000 to 10000 nM; in experiment [2] it was greater than 10000 nM; in experiment [3] it was 1000 to 10000 nM.
Consider `C[C@@H]1[C@H](NC(=O)c2ccc(C3CC3)cc2F)CCCN1c1cnc(C(N)=O)c(Nc2ccc(S(=O)(=O)N3CCN(C)CC3)cc2)n1` [Example D-130, 5-[(2R,3R)-3-(4-cyclopropyl-2-fluorobenzamido)-2-methylpiperidin-1-yl]-3-({4-[(4-methylpiperazin-1-yl)sulfonyl]phenyl}amino)pyrazine-2-carboxamide], for which the figures for the IC50 in experiment [1], in experiment [2] and in experiment [3] were 100 to 1000 nM, 100 to 1000 nM and 1000 to 10000 nM, respectively.
On to `C[C@H]1CC[C@@H](NC(=O)N(C)C)CN1c1cnc(C(N)=O)c(Nc2cnn(C)c2)n1` [Example D-152, 5-[(2S,5R)-5-[(dimethylcarbamoyl)amino]-2-methylpiperidin-1-yl]-3-[(1-methyl-1H-pyrazol-4-yl)amino]pyrazine-2-carboxamide], for which the IC50 is 10 to 100 nM in experiment [1], 1000 to 10000 nM in experiment [2] and 1000 to 10000 nM in experiment [3].
For the compound `C[C@@H]1[C@H](NC(=O)c2ccc(C3CC3)cc2F)CCCN1c1cnc(C(N)=O)c(Nc2ccc(CN3CCN(C)CC3)cc2)c1` [Example D-125, 5-[(2R,3R)-3-(4-cyclopropyl-2-fluorobenzamido)-2-methylpiperidin-1-yl]-3-({4-[(4-methylpiperazin-1-yl)methyl]phenyl}amino)pyridine-2-carboxamide], the IC50 lay in the range of 1000 to 10000 nM in experiment [1], 1000 to 10000 nM in experiment [2] and 100 to 1000 nM in experiment [3].
With `Cn1cc(Nc2nc(N3CCCC4(C3)CN(c3ccc(C5CC5)cc3)C(=O)O4)cnc2C(N)=O)cn1` [Example D-147, 5-[3-(4-cyclopropylphenyl)-2-oxo-1-oxa-3,7-diazaspiro[4.5]decan-7-yl]-3-[(1-methyl-1H-pyrazol-4-yl)amino]pyrazine-2-carboxamide], the figures for the IC50 in experiment [1], in experiment [2] and in experiment [3] were 100 to 1000 nM, greater than 10000 nM and 100 to 1000 nM, respectively.
Consider `C[C@@H]1[C@H](NC(=O)c2ccc(C3CC3)cc2F)CCCN1c1cnc(C(N)=O)c(Nc2ccc(S(=O)(=O)N3CCCC3)cc2)n1` [Example D-139, 5-[(2R,3R)-3-(4-cyclopropyl-2-fluorobenzamido)-2-methylpiperidin-1-yl]-3-{[4-(pyrrolidine-1-sulfonyl)phenyl]amino}pyrazine-2-carboxamide], for which the figures for the IC50 in experiment [1], in experiment [2] and in experiment [3] were 100 to 1000 nM, greater than 10000 nM and greater than 10000 nM, respectively.
Consider `C[C@@H]1[C@H](NC(=O)c2ccc(C3CC3)cc2F)CCCN1c1cnc(C(N)=O)c(Nc2ccc(N3CCN(C)CC3)cn2)n1` [Example D-8, 5-[(2R,3R)-3-(4-cyclopropyl-2-fluorobenzamido)-2-methylpiperidin-1-yl]-3-{[5-(4-methylpiperazin-1-yl)pyridin-2-yl]amino}pyrazine-2-carboxamide], for which the concentration for half-maximal inhibition (IC50) is 1000 to 10000 nM in experiment [1], greater than 10000 nM in experiment [2] and greater than 10000 nM in experiment [3].
For the compound `C[C@@H]1[C@H](NC(=O)c2ccc(C3CC3)cc2)CCCN1c1cnc(C(N)=O)c(Nc2ccc(OC3C[C@H]4CC[C@@H](C3)N4C)cc2)n1` (stereo partly drawn) [Example D-104, 5-[(2R,3R)-3-(4-cyclopropylbenzamido)-2-methylpiperidin-1-yl]-3-[(4-{[(1R,5S)-8-methyl-8-azabicyclo[3.2.1]octan-3-yl]oxy}phenyl)amino]pyrazine-2-carboxamide], the values for the IC50 in experiment [1], in experiment [2] and in experiment [3] were no more than 10 nM, 10 to 100 nM and 10 to 100 nM, respectively.
In the case of `C[C@@H]1[C@H](NC(=O)N(C)C)CCCN1c1cnc(C(N)=O)c(Nc2cc(CN3CCOCC3)ns2)n1` [Example D-118, 5-[(2R,3R)-3-[(dimethylcarbamoyl)amino]-2-methylpiperidin-1-yl]-3-{[3-(morpholin-4-ylmethyl)-1,2-thiazol-5-yl]amino}pyrazine-2-carboxamide], the IC50 in experiment [1], in experiment [2] and in experiment [3] was 100 to 1000 nM throughout.
`C[C@@H]1[C@H](NC(=O)c2ccc(C3CC3)cc2F)CCCN1c1cnc(C(N)=O)c(Nc2ccc(CN3CCN(C)CC3)cc2)n1` [Example D-113, 5-[(2R,3R)-3-(4-cyclopropyl-2-fluorobenzamido)-2-methylpiperidin-1-yl]-3-({4-[(4-methylpiperazin-1-yl)methyl]phenyl}amino)pyrazine-2-carboxamide]: the IC50 in experiment [1] fell in the range of 10 to 100 nM; in experiment [2], 100 to 1000 nM; in experiment [3], 10 to 100 nM.
